Experimental data from paper PMC4332533 (Neuropharmacology, 2014).
Read-outs that look alike come from different tables or passages of the source. Values belong to the compound of their own block, whether it stands above or below them.

Columns and labels:
α3S125Yβ2 receptor = α3S125Yβ2 receptor (Rattus norvegicus, UniProt P04757+P12390, S152Y); experiment: Macroscopic evoked currents, two-electrode voltage-clamp, Xenopus laevis oocytes
α3Y168Fβ2D190Q receptor = α3Y168Fβ2D190Q receptor (Rattus norvegicus, UniProt P04757+P12390, D216Q/Y195F); experiment: as above; assay type: cell-based; details: mutation-modulator Ɽ from EC50s vs wild type; 10 µM Oxa
α3β2D190Q receptor = α3β2D190Q receptor (Rattus norvegicus, UniProt P04757+P12390, D216Q); experiment: as above; assay type: cell-based; details: mutation-modulator Ɽ from EC50s vs wild type; 10 µM Oxa
α3Y168Fβ2 receptor = α3Y168Fβ2 receptor (Rattus norvegicus, UniProt P04757+P12390, Y195F); experiment: as above; assay type: cell-based; details: mutation-modulator Ɽ from EC50s vs wild type; 10 µM Oxa
α3Y168Cβ2D190C receptor [1] = biological target: T1, α3Y168Cβ2D190C receptor (Rattus norvegicus, UniProt P04757+P12390, D216C/Y195C); experiment: as above; assay type: cell-based; details: mutation-modulator Ɽ from EC50s vs wild type; 10 µM Oxa
α3β2D190C receptor = α3β2D190C receptor (Rattus norvegicus, UniProt P04757+P12390, D216C); experiment: as above; assay type: cell-based
α3Y168Cβ2 receptor = α3Y168Cβ2 receptor (Rattus norvegicus, UniProt P04757+P12390, Y195C); experiment: as above; assay type: cell-based; details: mutation-modulator Ɽ from EC50s vs wild type; 10 µM Oxa
α3S125Cβ2Q39C receptor = α3S125Cβ2Q39C receptor (Rattus norvegicus, UniProt P04757+P12390, Q65C/S152C); experiment: Disulfide cross-linking experiments; assay type: cell-based; details: 40–100 µM DTT after H2O2 (Fig. 6)
α3Q37Cβ2A127C receptor = α3Q37Cβ2A127C receptor (Rattus norvegicus, UniProt P04757+P12390, A153C/Q64C); experiment: Disulfide cross-linking experiments; assay type: cell-based; details: 40 µM DTT after oxidation (Fig. 7)
α3Y168Cβ2D190C receptor [2] = biological target: T1, α3Y168Cβ2D190C receptor; experiment: Disulfide cross-linking experiments; assay type: cell-based; details: subsequent DTT treatment (Supplemental Fig. S2B)
α3E173Cβ2R46C receptor = α3E173Cβ2R46C receptor (Rattus norvegicus, UniProt P04757+P12390, E200C/R46C); experiment: Disulfide cross-linking experiments; assay type: cell-based; details: DTT after H2O2 (Supplemental Fig. S4)
α3E173Cβ2R46C receptor, sequence (P04757 26-499 E200C): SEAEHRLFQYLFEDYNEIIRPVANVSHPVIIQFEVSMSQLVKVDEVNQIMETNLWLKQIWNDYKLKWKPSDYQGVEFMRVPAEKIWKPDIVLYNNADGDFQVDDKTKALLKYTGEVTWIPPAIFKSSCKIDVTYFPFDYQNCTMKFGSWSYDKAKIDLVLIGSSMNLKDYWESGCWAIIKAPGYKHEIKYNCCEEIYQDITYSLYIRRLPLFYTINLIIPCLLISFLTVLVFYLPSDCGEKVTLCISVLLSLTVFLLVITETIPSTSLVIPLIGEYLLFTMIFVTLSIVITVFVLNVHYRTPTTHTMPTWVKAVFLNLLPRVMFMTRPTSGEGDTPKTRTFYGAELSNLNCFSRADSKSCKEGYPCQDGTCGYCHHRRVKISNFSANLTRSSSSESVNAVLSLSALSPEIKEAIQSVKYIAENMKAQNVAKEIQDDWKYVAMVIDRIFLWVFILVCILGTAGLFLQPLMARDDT
α3E173Cβ2R46C receptor, sequence (P12390 25-500 R46C): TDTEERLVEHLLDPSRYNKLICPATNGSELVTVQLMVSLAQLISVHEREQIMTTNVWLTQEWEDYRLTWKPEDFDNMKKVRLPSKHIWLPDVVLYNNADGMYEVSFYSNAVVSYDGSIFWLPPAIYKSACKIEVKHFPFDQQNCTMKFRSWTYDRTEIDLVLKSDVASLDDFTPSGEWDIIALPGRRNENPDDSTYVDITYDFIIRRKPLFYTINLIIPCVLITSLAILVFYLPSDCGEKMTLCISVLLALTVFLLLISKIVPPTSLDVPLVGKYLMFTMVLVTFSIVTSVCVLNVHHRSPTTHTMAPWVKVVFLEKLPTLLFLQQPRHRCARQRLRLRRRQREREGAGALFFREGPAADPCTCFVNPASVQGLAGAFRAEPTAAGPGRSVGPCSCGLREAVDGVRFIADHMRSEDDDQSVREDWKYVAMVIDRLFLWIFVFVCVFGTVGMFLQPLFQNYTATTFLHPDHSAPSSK

T1 sequence (P04757 26-499 Y195C): as the sequence (P04757 26-499 E200C) above, with Y170C, C175E counted along it
T1 sequence (P12390 25-500 D216C): as the sequence (P12390 25-500 R46C) above, with C22R, D192C counted along it
α3β2D190C receptor, sequence (P04757 26-499): as the sequence (P04757 26-499 E200C) above, with C175E counted along it
α3β2D190C receptor, sequence (P12390 25-500 D216C): as the sequence (P12390 25-500 R46C) above, with C22R, D192C counted along it
α3S125Yβ2 receptor, sequence (P04757 26-499 S152Y): as the sequence (P04757 26-499 E200C) above, with S127Y, C175E counted along it
α3S125Yβ2 receptor, sequence (P12390 25-500, stated change not applied): as the sequence (P12390 25-500 R46C) above, with C22R counted along it
α3S125Cβ2Q39C receptor, sequence (P04757 26-499 S152C): as the sequence (P04757 26-499 E200C) above, with S127C, C175E counted along it
α3S125Cβ2Q39C receptor, sequence (P12390 25-500 Q65C): as the sequence (P12390 25-500 R46C) above, with C22R, Q41C counted along it
α3Q37Cβ2A127C receptor, sequence (P04757 26-499 Q64C): as the sequence (P04757 26-499 E200C) above, with Q39C, C175E counted along it
α3Q37Cβ2A127C receptor, sequence (P12390 25-500 A153C): as the sequence (P12390 25-500 R46C) above, with C22R, A129C counted along it
α3Y168Fβ2 receptor, sequence (P04757 26-499 Y195F): as the sequence (P04757 26-499 E200C) above, with Y170F, C175E counted along it
α3Y168Fβ2 receptor, sequence (P12390 25-500): as the sequence (P12390 25-500 R46C) above, with C22R counted along it
α3Y168Fβ2D190Q receptor, sequence (P04757 26-499 Y195F): as the sequence (P04757 26-499 E200C) above, with Y170F, C175E counted along it
α3Y168Fβ2D190Q receptor, sequence (P12390 25-500 D216Q): as the sequence (P12390 25-500 R46C) above, with C22R, D192Q counted along it
α3Y168Cβ2 receptor, sequence (P04757 26-499 Y195C): as the sequence (P04757 26-499 E200C) above, with Y170C, C175E counted along it
α3Y168Cβ2 receptor, sequence (P12390 25-500): as the sequence (P12390 25-500 R46C) above, with C22R counted along it
α3β2D190Q receptor, sequence (P04757 26-499): as the sequence (P04757 26-499 E200C) above, with C175E counted along it
α3β2D190Q receptor, sequence (P12390 25-500 D216Q): as the sequence (P12390 25-500 R46C) above, with C22R, D192Q counted along it

SMILES: Clc1ccc(C2CC3CCC2N3)cn1 (stereo not shown) [epibatidine]
efficacy compared with ACh (α3S125Yβ2 receptor; saturating agonist (Fig. 8)): greater efficacy

R(mut-Oxa) (α3Y168Fβ2D190Q receptor): 1.6
R(mut-Oxa) (α3β2D190Q receptor): 19
R(mut-Oxa) (α3Y168Fβ2 receptor): 1.5
R(mut-Oxa) (α3Y168Cβ2D190C receptor [1]): 1.9
potentiation of ACh-evoked currents (α3β2D190C receptor; 10 µM modulator (Fig. 3B)): eliminated
R(mut-Oxa) (α3β2D190C receptor; mutation-modulator Ɽ from EC50s vs wild type, 10 µM Oxa): 19
R(mut-Oxa) (α3Y168Cβ2 receptor): 1.2
SMILES: CN1CCCN=C1/C=C/c1cccc(O)c1 [Oxa, 1-methyl-2-(3-hydroxyphenylethenyl)-1,4,5,6-tetrahydropyrimidine with 4,4’-methylenebis(3-hydroxy-2-naphthoic acid)]

reduction of the disulfide bond after oxidation (α3S125Cβ2Q39C receptor): effective resistance
reduction of the disulfide bond after oxidation (α3Q37Cβ2A127C receptor): essentially resistant
reversal of oxidation-induced current decrease by reduction (α3Y168Cβ2D190C receptor [2]): completely reversed
SMILES: O[C@@H](CS)[C@@H](O)CS (racemic) [DTT, dithiothreitol]
change of currents upon reduction following oxidation (α3E173Cβ2R46C receptor): did decrease currents, but not completely to the control level

SMILES: CN1CCC[C@H]1c1cccnc1 [nicotine]
efficacy compared with ACh (α3S125Yβ2 receptor): greater efficacy
